# Structures can show the parent of a compound that is named as a salt.
# Molecular target: T1, rat mGluR5 (Rattus norvegicus, UniProt P31424)
# T1 construct: expressed in transfected cells
# Assay: mGluR5 assay on HEK-expressing rat mGluR5 (fluorescent cell based Ca2+ mobilization assay)
# Details: HEK-293 cells stably expressing rat mGluR5; no co-addition of glutamate; mean of at least three independent experiments in duplicate; read-out: Ca++ Flux (mean EC50)
# Procedure: mGluR5 Assay on HEK-Expressing Rat mGluR5
# Positive functional expression of HEK-293 cells stably expressing rat mGluR5 receptor was determined by measuring intracellular Ca^2+ changes using a Fluorometric Imaging Plate Reader (FLIPR, Molecular Devices, Sunnyvale, Calif.) in response to glutamate or selective known mGluR5 agonists and antagonists. Rat mGluR5 RT-PCR products in HEK-293 cells were sequenced and found 100% identical to rat mGluR5 Genbank reference sequence (NM_017012). HEK-293 cells expressing rmGluR5 were maintained in media containing DMEM, dialyzed Fetal Bovine Serum (10%), Glutamax™ (2 mM), Penicillin (100 units/ml), Streptomycin (100 μg/ml), Geneticin (100 μg/ml) and Hygromycin-B (40 μg/ml) at 37° C./5% CO2.
# After one day of incubation, cells were washed with assay buffer containing: 142 mM NaCl, 6 mM KCl, 1 mM […], 1 mM CaCl2, 20 mM HEPES, 1 g/L glucose, 0.125 mM sulfinpyrazone, pH 7.4. After 60 min of loading with 4 uM Fluo-4 (TefLabs, Austin, Tex.), the cells were washed three times with 50 μl of PBS Buffer and resuspended in 45 μl of assay Buffer. The plates were then transferred to a Fluorometric Imaging Plate Reader (FLIPR, Molecular Devices, Sunnyvale, Calif.) for the assessment of intracellular calcium flux. After monitoring the baseline fluorescence for 10 seconds, increasing concentrations of representative compound (from 0.01 to 60 μM) of the present invention diluted in Assay Buffer (15 μl of 4× dilutions) was added to the cell. The final DMSO concentration in the assay was 0.3%. In each experiment, fluorescence was then monitored as a function of time for 3 minutes and the data analyzed using Microsoft Excel and GraphPad Prism. Each data point was also measured two times.
# Under these experimental conditions, this HEK-rat mGluR5 cell line is able to directly detect positive allosteric modulators without the need of co-addition of glutamate or mGluR5 agonist.
# The concentration-response curves of representative compounds of the present invention were generated using the Prism GraphPad software (Graph Pad Inc, San Diego, USA). The curves were fitted to a four-parameter logistic equation:
# (Y=Bottom+(Top−Bottom)/(1+10̂((Log EC50−X)*Hill Slope)
# allowing determination of EC50 values.
# The Table 1 below represents the mean EC50 obtained from at least three independent experiments of selected molecules performed in duplicate.
# T1 sequence (P31424 21-1171 isoform P31424-2 limits assumed): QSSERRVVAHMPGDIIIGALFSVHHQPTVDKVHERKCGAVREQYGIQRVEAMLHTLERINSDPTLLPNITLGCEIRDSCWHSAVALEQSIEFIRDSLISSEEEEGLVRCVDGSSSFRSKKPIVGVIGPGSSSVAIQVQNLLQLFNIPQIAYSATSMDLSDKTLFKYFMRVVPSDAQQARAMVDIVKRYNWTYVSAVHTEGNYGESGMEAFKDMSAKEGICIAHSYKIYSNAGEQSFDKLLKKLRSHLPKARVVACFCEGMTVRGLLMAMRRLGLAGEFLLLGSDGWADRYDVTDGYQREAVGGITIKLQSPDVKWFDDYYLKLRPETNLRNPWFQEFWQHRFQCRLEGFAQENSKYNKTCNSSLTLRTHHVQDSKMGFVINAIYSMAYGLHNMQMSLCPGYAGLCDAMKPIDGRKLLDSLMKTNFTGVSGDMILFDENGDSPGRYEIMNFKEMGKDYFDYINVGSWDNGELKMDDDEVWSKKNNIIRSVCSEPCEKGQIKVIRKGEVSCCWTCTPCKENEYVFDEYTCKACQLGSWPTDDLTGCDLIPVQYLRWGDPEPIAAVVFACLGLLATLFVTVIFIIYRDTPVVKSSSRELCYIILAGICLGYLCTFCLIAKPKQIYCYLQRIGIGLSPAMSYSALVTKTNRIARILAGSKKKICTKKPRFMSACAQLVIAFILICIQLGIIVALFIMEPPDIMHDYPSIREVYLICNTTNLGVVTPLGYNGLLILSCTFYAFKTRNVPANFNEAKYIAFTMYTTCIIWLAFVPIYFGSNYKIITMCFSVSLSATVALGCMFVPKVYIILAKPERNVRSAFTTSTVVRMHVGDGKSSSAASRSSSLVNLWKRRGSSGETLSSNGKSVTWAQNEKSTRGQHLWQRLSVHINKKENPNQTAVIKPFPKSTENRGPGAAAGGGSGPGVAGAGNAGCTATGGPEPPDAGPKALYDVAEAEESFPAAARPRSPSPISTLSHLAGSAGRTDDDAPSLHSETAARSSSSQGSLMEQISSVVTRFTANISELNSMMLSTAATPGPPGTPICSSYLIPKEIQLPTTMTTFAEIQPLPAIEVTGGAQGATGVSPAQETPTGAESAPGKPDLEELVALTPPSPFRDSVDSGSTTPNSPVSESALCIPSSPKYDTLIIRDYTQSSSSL
row,EC50 [µM],Structure (SMILES)
1,1 to 10,"Cc1nocc1C(=O)N1CCC[C@H](c2nc(-c3ccc(F)cc3)no2)C1 [Example 4, (S)-{3-[3-(4-Fluoro-phenyl)-[1,2,4]oxadiazol-5-yl]-piperidin-1-yl}-(3-methyl-isoxazol-4-yl)-methanone]"
2,> 10,"O=C(c1cccc(COc2ccccc2)c1)N1CCC[C@H](c2nc(-c3ccc(F)cc3)no2)C1 [Example 6, {(S)-3-[3-(4-Fluoro-phenyl)-[1,2,4]oxadiazol-5-yl]-piperidin-1-yl}-(3-phenoxymethyl-phenyl)-methanone]"
3,> 10,"O=C(C1CCc2cc(F)ccc21)N1CCC[C@H](c2nc(-c3ccc(F)cc3)no2)C1 (stereo partly drawn) [Example 8, (5-Fluoro-indan-1-yl)-{(S)-3-[3-(4-fluoro-phenyl)-[1,2,4]oxadiazol-5-yl]-piperidin-1-yl}-methanone]"
4,1 to 10,"Cc1nnsc1C(=O)N1CCC[C@H](c2nc(-c3ccc(F)cc3)no2)C1 [Example 13, {(S)-3-[3-(4-Fluoro-phenyl)-[1,2,4]oxadiazol-5-yl]-piperidin-1-yl}-(4-methyl-[1,2,3]thiadiazol-5-yl)-methanone]"
5,1 to 10,"O=C(c1cccnc1F)N1CCC[C@H](c2nc(-c3ccc(F)cc3)no2)C1 [Example 14, {(S)-3-[3-(4-Fluoro-phenyl)-[1,2,4]oxadiazol-5-yl]-piperidin-1-yl}-(2-fluoro-pyridin-3-yl)-methanone]"
6,1 to 10,"O=C(c1ccccn1)N1CCC[C@H](c2nc(-c3ccc(F)cc3)no2)C1 [Example 15, {(S)-3-[3-(4-Fluoro-phenyl)-[1,2,4]oxadiazol-5-yl]-piperidin-1-yl}-pyridin-2-yl-methanone hydrochloride]"
7,1 to 10,"Cc1nc(C)c(C(=O)N2CCC[C@H](c3nc(-c4ccc(F)cc4)no3)C2)s1 [Example 18, (2,4-Dimethyl-thiazol-5-yl)-{(S)-3-[3-(4-fluoro-phenyl)-[1,2,4]oxadiazol-5-yl]-piperidin-1-yl}-methanone]"
8,1 to 10,"Cc1ccccc1C(=O)N1CCC[C@H](c2nc(-c3ccc(F)cc3)no2)C1 [Example 19, {(S)-3-[3-(4-Fluoro-phenyl)-[1,2,4]oxadiazol-5-yl]-piperidin-1-yl}-o-tolyl-methanone]"
9,1 to 10,"CCc1ccccc1C(=O)N1CCC[C@H](c2nc(-c3ccc(F)cc3)no2)C1 [Example 20, (2-Ethyl-phenyl)-{3-[3-(4-fluoro-phenyl)-[1,2,4]oxadiazol-5-yl]-piperidin-1-yl}-methanone]"
10,1 to 10,"Cc1c(C(=O)N2CCC[C@H](c3nc(-c4ccc(F)cc4)no3)C2)cnn1C [Example 21, (1,5-Dimethyl-1H-pyrazol-4-yl)-{(S)-3-[3-(4-fluoro-phenyl)-[1,2,4]oxadiazol-5-yl]-piperidin-1-yl}-methanone]"
11,1 to 10,"O=C(c1ccoc1)N1CCC[C@H](c2nc(-c3ccc(F)cc3)no2)C1 [Example 22, {(S)-3-[3-(4-Fluoro-phenyl)-[1,2,4]oxadiazol-5-yl]-piperidin-1-yl}-furan-3-yl-methanone]"
12,1 to 10,"Cc1occc1C(=O)N1CCC[C@H](c2nc(-c3ccc(F)cc3)no2)C1 [Example 24, {(S)-3-[3-(4-Fluoro-phenyl)-[1,2,4]oxadiazol-5-yl]-piperidin-1-yl}-(2-methyl-furan-3-yl)-methanone]"
13,1 to 10,"O=C(c1ccsc1Br)N1CCC[C@H](c2nc(-c3ccc(F)cc3)no2)C1 [Example 28, (S)-(2-Bromo-thiophen-3-yl)-{3-[3-(4-fluoro-phenyl)-[1,2,4]oxadiazol-5-yl]-piperidin-1-yl}-methanone]"
14,1 to 10,"Cc1ccoc1C(=O)N1CCC[C@H](c2nc(-c3ccc(F)cc3)no2)C1 [Example 30, (S)-{3-[3-(4-Fluoro-phenyl)-[1,2,4]oxadiazol-5-yl]-piperidin-1-yl}-(3-methyl-furan-2-yl)-methanone]"
15,> 10,"COc1ccsc1C(=O)N1CCC[C@H](c2nc(-c3ccc(F)cc3)no2)C1 [Example 31, {(S)-3-[3-(4-Fluoro-phenyl)-[1,2,4]oxadiazol-5-yl]-piperidin-1-yl}-(3-methoxy-thiophen-2-yl)-methanone]"
16,< 1,"Cc1cc(F)ccc1C(=O)N1CCC[C@H](c2nc(-c3ccc(F)cc3)no2)C1 [Example 32, (4-Fluoro-2-methyl-phenyl)-{(S)-3-[3-(4-fluoro-phenyl)-[1,2,4]oxadiazol-5-yl]-piperidin-1-yl}-methanone]"

row,EC50 [µM],Structure (SMILES)
1,1 to 10,"Cc1cccc(-c2noc([C@H]3CCCN(C(=O)c4ccc(F)cc4)C3)n2)n1 [Example 33, (4-Fluoro-phenyl)-{(S)-3-[3-(6-methyl-pyridin-2-yl)-[1,2,4]oxadiazol-5-yl]-piperidin-1-yl}-methanone]"
2,1 to 10,"Cc1ccc(-c2noc([C@H]3CCCN(C(=O)c4ccc(F)cc4)C3)n2)o1 [Example 34, (4-Fluoro-phenyl)-{(S)-3-[3-(5-methyl-furan-2-yl)-[1,2,4]oxadiazol-5-yl]-piperidin-1-yl}-methanone]"
3,1 to 10,"O=C(c1ccc(F)cc1)N1CCC[C@H](c2nc(-c3ccco3)no2)C1 [Example 35, (4-Fluoro-phenyl)-[(S)-3-(3-furan-2-yl-[1,2,4]oxadiazol-5-yl)-piperidin-1-yl]-methanone]"
4,1 to 10,"Cc1sccc1C(=O)N1CCC[C@H](c2nc(-c3ccc(F)cc3)no2)C1 [Example 36, {(S)-3-[3-(4-Fluoro-phenyl)-[1,2,4]oxadiazol-5-yl]-piperidin-1-yl}-(2-methyl-thiophen-3-yl)-methanone]"
5,< 1,"O=C(c1ccc(F)cc1)N1CCC[C@H](c2nc(-c3cccs3)no2)C1 [Example 37, (4-Fluoro-phenyl)-[(S)-3-(3-thiophen-2-yl-[1,2,4]oxadiazol-5-yl)-piperidin-1-yl]-methanone]"
6,< 1,"O=C(c1ccc(F)cc1)N1CCC[C@H](c2nc(-c3ccsc3)no2)C1 [Example 38, (4-Fluoro-phenyl)-[(S)-3-(3-thiophen-3-yl-[1,2,4]oxadiazol-5-yl)-piperidin-1-yl]-methanone]"
7,1 to 10,"Cn1cccc1-c1noc([C@H]2CCCN(C(=O)c3ccc(F)cc3)C2)n1 [Example 39, (4-Fluoro-phenyl)-{(S)-3-[3-(1-methyl-1H-pyrrol-2-yl)-[1,2,4]oxadiazol-5-yl]-piperidin-1-yl}-methanone]"
8,> 10,"Cc1cccnc1-c1noc([C@H]2CCCN(C(=O)c3ccc(F)cc3)C2)n1 [Example 40, (4-Fluoro-phenyl)-{(S)-3-[3-(3-methyl-pyridin-2-yl)-[1,2,4]oxadiazol-5-yl]-piperidin-1-yl}-methanone]"
9,> 10,"O=C(c1c[nH]nc1C(F)(F)F)N1CCC[C@H](c2nc(-c3ccc(F)cc3)no2)C1 [Example 41, {(S)-3-[3-(4-Fluoro-phenyl)-[1,2,4]oxadiazol-5-yl]-piperidin-1-yl}-(3-trifluoromethyl-1H-pyrazol-4-yl)-methanone]"
10,> 10,"CNc1cc(F)ccc1C(=O)N1CCC[C@H](c2nc(-c3ccc(F)cc3)no2)C1 [Example 42, (4-Fluoro-2-methylamino-phenyl)-{(S)-3-[3-(4-fluoro-phenyl)-[1,2,4]oxadiazol-5-yl]-piperidin-1-yl}-methanone]"
11,< 1,"Cc1oncc1C(=O)N1CCC[C@H](c2nc(-c3ccsc3)no2)C1 [Example 44, (5-Methyl-isoxazol-4-yl)-[(S)-3-(3-thiophen-3-yl-[1,2,4]oxadiazol-5-yl)-piperidin-1-yl]-methanone]"
12,1 to 10,"CCc1oncc1C(=O)N1CCC[C@H](c2nc(-c3ccc(F)cc3)no2)C1 [Example 46, (5-Ethyl-isoxazol-4-yl)-{(S)-3-[3-(4-fluoro-phenyl)-[1,2,4]oxadiazol-5-yl]-piperidin-1-yl}-methanone]"
13,1 to 10,"COCc1oncc1C(=O)N1CCC[C@H](c2nc(-c3ccc(F)cc3)no2)C1 [Example 47, {(S)-3-[3-(4-Fluoro-phenyl)-[1,2,4]oxadiazol-5-yl]-piperidin-1-yl}-(5-methoxymethyl-isoxazol-4-yl)-methanone]"
14,> 10,"Cc1ccccc1-c1noc([C@H]2CCCN(C(=O)c3ccc(F)cc3)C2)n1 [Example 48, (4-Fluoro-phenyl)-[(S)-3-(3-o-tolyl-[1,2,4]oxadiazol-5-yl)-piperidin-1-yl]-methanone]"
15,1 to 10,"CNc1ccccc1C(=O)N1CCC[C@H](c2nc(-c3ccc(F)cc3)no2)C1 [Example 49, {(S)-3-[3-(4-Fluoro-phenyl)-[1,2,4]oxadiazol-5-yl]-piperidin-1-yl}-(2-methylamino-phenyl)-methanone]"

# Reference: patent publication US20090197897A1, “Novel Oxadiazole Derivatives and Their Use as Positive Allosteric Modulators of Metabotropic Glutamate Receptors” (Addex Pharma SA, priority 2005, published 2009)
